Assay results reported in US20250114377A1, “TWO-PRONGED TREATMENT FOR NIEMANN PICK TYPE C DISEASE” (UNIVERSITY OF NOTRE DAME DU LAC, priority 2022, published 2025).

Legend:
lysosomal tubulation = test: Rescue of lysosomal tubulation with purified oxysterols in LDL-depleted media (FIG. 4); format: cell-based; conditions: media depleted of LDL supplemented with the oxysterol; 24-HC p<0.005, 25-HC p<0.0001
Experimental: FIG. 4. Rescue of Lysosomal Tubulation with Purified Oxysterols. Measurements of lysosomal tubulation comparing control complete media (Control) to media depleted of LDL (LDL−) and depleted media supplemented with 27-hydroxycholesterol (27-HC), 24-hydroxycholesterol (24-HC) or 25-hydroxycholesterol (25-HC).
Fixed and live-cell imaging was performed on COS-7 cells grown in Dulbecco's Modified Eagle's Medium (DMEM) supplemented with 10% fetal bovine serum, 1% L-glutamine, and penicillin/streptomycin (Sigma-Aldrich). Transfections were performed using either Lipofectamine (Life Technologies), X-treme Gene DNA Transfection reagent (Roche, Indianapolis, IN) or Nanofect (Allstem, Richmond, CA). J774A.1 mouse macrophages were provided and cultured in the same media. Cells were tested for contamination using PCR-based test kits (Sartorius, Inc.; Cat #SMB95-1001).
Microscopy experiments were performed on a Zeiss Axiovert 200M (Thornwood, NY) run by Metamorph software (Sunnyvale, CA). Fixed and live cell imaging data was collected using either a Photometrics Coolsnap HQ or Cascade 1k CCD camera (Tucson, AZ). Timelapse imaging of cells expressing NPC1-EGFP and mCherry-StARD9 utilized a Dual-view camera (Photometrics) adapter to allow simultaneous acquisition of green and red channels at each timepoint. Kymographs were generated in Metamorph using a 1p m slice from each frame.
To test this idea, we treated either NPC1 mutant (null or I1061T) or StARD9 mutant (null or truncation mutant) cells with 27-HC in a cocktail that delivers it into the cytoplasm independent of receptor-mediated endocytosis. […] Next, we treated NPC1(−/−) mice with 27-HC by i.p. delivery.

[1] = test system: LE/L membrane tubule projection, COS-7 cells; test: LE/L tubule projection of NPC1-containing membranes with microtubule drugs; format: cell-based; conditions: FP-tagged NPC1 membranes, live-cell imaging
Text: Although it is well-accepted that mutations in NPC1 are responsible for ˜95% of human cases of NPC disease, there is less consensus on the specific cellular activities NPC1 is responsible for. For example, both the N-terminal domain and the sterol-sensing domain of NPC1 are thought to bind cholesterol and mediate the movement of lumenal cholesterol across the limiting membrane of LE/Ls. However, the lipids that over-accumulate in NPC disease are not limited to cholesterol and include oxysterols, sphingolipids, gangliosides and GPI-anchored proteins. Furthermore, the pathological accumulations of cholesterol have been proposed to affect the functional state of LE/Ls directly, including perturbing calcium uptake, autophagy/mitophagy and the thickness of the glycocalyx. However, the specific ways in which NPC1 mutations affect these parameters remain unclear. With this wide range of unknowns in mind, we generated a FP-tagged NPC1 plasmid construct for expression in mammalian cells. […] Also overlapping with previous observations, LE/L membranes incorporating FP-tagged NPC1 projected a population of long, slender, dynamic membrane tubules that emerged from the surface of stationary LE/Ls and extended towards the cell periphery (See Sterling, FIG. 1A and Sup Vid. 1). […]

SMILES | Rescue of lysosomal tubulation compared with 27-HC (lysosomal tubulation) | Effect on LE/L tubule projection [1]
CC(C)C(O)CC[C@@H](C)[C@H]1CC[C@H]2[C@@H]3CC=C4C[C@@H](O)CC[C@]4(C)[C@H]3CC[C@]12C (stereo partly shown) [24-HC, 24-hydroxycholesterol] | significantly lower that 27-HC | 
CC(=O)O[C@H]1C(=O)[C@@]2(C)[C@H]([C@H](OC(=O)c3ccccc3)[C@]3(O)C[C@H](OC(=O)[C@H](O)[C@@H](NC(=O)c4ccccc4)c4ccccc4)C(C)=C1C3(C)C)[C@]1(OC(C)=O)CO[C@@H]1C[C@@H]2O [taxol] |  | inhibited
COC(=O)Nc1nc2ccc(C(=O)c3cccs3)cc2[nH]1 [nocodazole] |  | inhibited
C[C@H](CCCC(C)(C)O)[C@H]1CC[C@H]2[C@@H]3CC=C4C[C@@H](O)CC[C@]4(C)[C@H]3CC[C@]12C [25-HC, 25-hydroxycholesterol] | significantly lower that 27-HC | 
